Reference: the supplement of paper PMC10307832

How the values were obtained:
Experiment in all cases: relative viability (nuclei count vs DMSO), 5 days (fraction); higher = more cells survive
KN-93 + Navitoclax = compound: CN(C/C=C/C1=CC=C(C=C1)Cl)CC2=CC=CC=C2N(CCO)S(=O)(=O)C3=CC=C(C=C3)OC [KN-93] + CC1(C)CCC(c2ccc(Cl)cc2)=C(CN2CCN(c3ccc(C(=O)NS(=O)(=O)c4ccc(N[C@H](CCN5CCOCC5)CSc5ccccc5)c(S(=O)(=O)C(F)(F)F)c4)cc3)CC2)C1 [Navitoclax] (partner 0.5 µM)
How it was run: (§1)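 Each reported value is a median over duplicate plates. It expresses relative viability: treated-well nuclei count divided by vehicle-well nuclei count. Lung cancer cell lines in 1536-well plates were dosed by pin tool a day after seeding, alone with one drug or with a fixed anchor-drug dose plus five library-drug doses (not always all listed) in √10 steps, and nuclei were counted after 5 days.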

KN-93 + Foretinib = compound: CN(C/C=C/C1=CC=C(C=C1)Cl)CC2=CC=CC=C2N(CCO)S(=O)(=O)C3=CC=C(C=C3)OC [KN-93] + COc1cc2c(Oc3ccc(NC(=O)C4(C(=O)Nc5ccc(F)cc5)CC4)cc3F)ccnc2cc1OCCCN1CCOCC1 [Foretinib] (partner 0.25 µM)
How it was run: as §1

KN-93 + Decitabine = compound: CN(C/C=C/C1=CC=C(C=C1)Cl)CC2=CC=CC=C2N(CCO)S(=O)(=O)C3=CC=C(C=C3)OC [KN-93] + Nc1ncn([C@H]2C[C@H](O)[C@@H](CO)O2)c(=O)n1 [Decitabine] (partner 2 µM)
How it was run: as §1

KN-93 + Dasatinib = compound: CN(C/C=C/C1=CC=C(C=C1)Cl)CC2=CC=CC=C2N(CCO)S(=O)(=O)C3=CC=C(C=C3)OC [KN-93] + Cc1nc(Nc2ncc(C(=O)Nc3c(C)cccc3Cl)s2)cc(N2CCN(CCO)CC2)n1 [Dasatinib] (partner 0.075 µM)
How it was run: as §1

KN-93 + Tozasertib = compound: CN(C/C=C/C1=CC=C(C=C1)Cl)CC2=CC=CC=C2N(CCO)S(=O)(=O)C3=CC=C(C=C3)OC [KN-93] + Cc1cc(Nc2cc(N3CCN(C)CC3)nc(Sc3ccc(NC(=O)C4CC4)cc3)n2)n[nH]1 [Tozasertib] (partner 0.1 µM)
How it was run: as §1

Cell Line | relative viability (KN-93 + Navitoclax; first compound 0.08 µM) | relative viability (KN-93 + Navitoclax; first compound 0.253 µM) | relative viability (KN-93 + Navitoclax; first compound 2.53 µM) | relative viability (KN-93 + Navitoclax; first compound 8 µM) | relative viability (KN-93 + Foretinib; first compound 0.08 µM) | relative viability (KN-93 + Foretinib; first compound 0.253 µM) | relative viability (KN-93 + Foretinib; first compound 2.53 µM) | relative viability (KN-93 + Foretinib; first compound 8 µM) | relative viability (KN-93 + Decitabine; first compound 0.08 µM) | relative viability (KN-93 + Decitabine; first compound 0.253 µM) | relative viability (KN-93 + Decitabine; first compound 2.53 µM) | relative viability (KN-93 + Decitabine; first compound 8 µM) | relative viability (KN-93 + Dasatinib; first compound 0.08 µM) | relative viability (KN-93 + Dasatinib; first compound 0.253 µM) | relative viability (KN-93 + Dasatinib; first compound 2.53 µM) | relative viability (KN-93 + Dasatinib; first compound 8 µM) | relative viability (KN-93 + Tozasertib; first compound 0.08 µM) | relative viability (KN-93 + Tozasertib; first compound 0.253 µM) | relative viability (KN-93 + Tozasertib; first compound 2.53 µM) | relative viability (KN-93 + Tozasertib; first compound 8 µM)
201T | 1.23 | 1.21 | 1.19 | 1.07 | 1.06 | 0.711 | 1.08 | 0.566 | 0.866 | 0.887 | 0.758 | 0.583 | 0.604 | 0.421 | 0.533 | 0.342 | 0.916 | 0.99 | 0.819 | 0.508
A549 | 1.06 | 1.33 | 1.44 | 0.513 | 0.911 | 1.14 | 0.995 | 0.585 |  | 0.285 | 0.313 | 0.294 |  |  |  |  |  |  |  | 
A-427 | 0.93 | 0.843 | 0.991 | 0.664 | 1.06 | 1.11 | 1.04 | 0.807 | 0.579 | 0.511 | 0.546 | 0.496 | 0.71 | 0.668 | 0.672 | 0.324 | 0.206 | 0.193 | 0.172 | 0.165
ABC-1 |  |  |  |  | 0.956 | 1.17 | 0.873 | 0.314 | 1.37 | 1 | 1.17 | 0.411 | 0.585 | 0.476 | 0.468 | 0.203 | 0.158 | 0.157 | 0.217 | 0.192
BEN |  | 0.062 | 0.0593 | 0.0709 | 0.917 | 0.599 | 0.714 | 0.455 | 0.74 | 0.758 | 0.926 | 0.537 | 0.307 | 0.319 | 0.307 | 0.266 | 0.525 | 0.529 | 0.489 | 0.531
CAL-12T | 1.2 | 1.19 | 1.53 | 1.23 | 1.01 | 1.27 | 1.09 | 0.565 |  |  |  |  | 0.358 | 0.286 | 0.509 | 0.139 | 0.299 | 0.354 | 0.324 | 0.176
COR-L23 | 0.877 | 1.02 | 1.37 | 0.626 | 0.907 | 1.08 | 1.14 | 0.654 | 0.459 | 0.409 | 0.495 | 0.35 | 0.505 | 0.45 | 0.595 | 0.354 | 0.185 | 0.205 | 0.177 | 0.156
COR-L 105 | 0.733 | 0.639 | 0.731 | 0.514 | 0.987 | 1.05 | 1.02 | 0.73 | 0.635 | 0.657 | 0.667 | 0.634 | 0.363 | 0.277 | 0.302 | 0.239 | 0.399 | 0.325 | 0.329 | 0.282
ChaGo-K-1 | 1.58 | 1.08 | 1 | 0.54 | 0.866 | 0.981 | 0.832 | 0.669 | 0.559 | 0.528 | 0.541 | 0.457 | 0.555 | 0.662 | 0.534 | 0.341 | 0.234 | 0.232 | 0.243 | 0.2
EKVX | 0.824 | 0.742 | 1.13 | 0.305 | 0.849 | 0.758 | 0.911 | 0.22 | 0.332 | 0.289 | 0.342 | 0.319 | 0.42 | 0.429 | 0.358 | 0.389 | 0.378 | 0.48 | 0.369 | 0.301
EMC-BAC-2 | 0.845 | 1.32 | 1.37 | 1.05 | 0.962 | 1.05 | 0.938 | 0.752 | 0.996 | 0.98 | 0.969 | 0.693 | 0.299 | 0.366 | 0.3 | 0.272 | 0.24 | 0.276 | 0.274 | 0.274
EPLC-272H | 0.945 | 1.27 | 1.18 | 0.849 | 0.621 | 0.762 | 0.573 | 0.389 | 0.372 | 0.368 | 0.383 | 0.309 | 0.32 | 0.452 | 0.274 | 0.206 | 0.234 | 0.213 | 0.317 | 0.227
H3255 | 0.56 | 0.511 | 0.55 | 0.124 | 0.986 | 0.902 | 0.864 | 0.807 | 0.603 | 0.728 | 0.54 | 0.474 | 0.366 | 0.343 | 0.511 | 0.341 | 0.539 | 0.864 | 0.82 | 0.433
HARA | 0.983 | 1.22 | 1.02 | 0.687 | 0.918 | 1.37 | 0.887 | 0.532 | 0.572 | 0.554 | 0.641 | 0.506 | 0.246 | 0.283 | 0.248 | 0.104 | 0.125 | 0.104 | 0.111 | 0.11
HCC-15 | 0.539 | 0.718 | 0.794 | 0.579 | 0.914 | 1.12 | 1.11 | 0.807 | 0.546 | 0.62 | 0.707 | 0.309 | 0.59 | 0.535 | 0.581 | 0.447 | 0.284 | 0.523 | 0.312 | 0.101
HCC-44 | 0.852 | 0.892 | 0.951 | 0.752 |  |  |  |  | 1.05 | 0.929 | 1.03 | 0.915 |  |  |  |  | 0.912 | 0.809 | 0.863 | 0.526
